In patent publication US6342509B1, “Piperidine quaternary salts- CCR- 3 receptor antagonists” (Syntex (U.S.A.) LLC, priority 1998, dated 2002):

How the values were obtained:
CCR-3 receptor = target: T1, CCR-3 receptor (Homo sapiens, UniProt P51677); assay: CCR-3 Receptor Binding Assay in vitro (inhibition of 125I eotaxin binding to CCR-3 L1.2 transfectant cells); conditions: CCR-3 L1.2 transfected cells, 1 h at room temperature, read-out: IC50 (concentration of test compound required to reduce 125I-eotaxin binding to the CCR-3 L1.2 transfected cells by 50%)
T1 construct: host or cells: L1.2 (murine pre-B lymphoma line) CCR-3 transfectant cells
T1 sequence (P51677 1-355): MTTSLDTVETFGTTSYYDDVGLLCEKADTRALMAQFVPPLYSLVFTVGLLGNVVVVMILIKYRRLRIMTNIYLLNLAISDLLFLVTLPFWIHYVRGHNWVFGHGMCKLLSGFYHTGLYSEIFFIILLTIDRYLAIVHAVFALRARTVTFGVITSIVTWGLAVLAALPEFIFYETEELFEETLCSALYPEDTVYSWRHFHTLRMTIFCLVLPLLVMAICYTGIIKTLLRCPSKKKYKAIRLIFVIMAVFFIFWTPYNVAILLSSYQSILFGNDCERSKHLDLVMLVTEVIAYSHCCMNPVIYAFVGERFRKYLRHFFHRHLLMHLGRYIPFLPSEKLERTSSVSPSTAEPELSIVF
Method: The CCR-3 antagonistic activity of the compounds of the invention was determined by their ability to inhibit the binding of ^125I eotaxin to CCR-3 L1.2 transfectant cells obtained from leukoSite (Cambridge, Mass.).
The assay was performed in Costar 96-well polypropylene round bottom plates. Test compounds were dissolved in DMSO and then diluted with binding buffer (50 mM HEPES, 1 mM CaCl2, 5 mM MgCl2, 0.5% bovine serum albumin, 0.02% sodium azide, pH 7.24) such that the final DMSO concentration was 2%. 25 μl of the test solution or only buffer with DMSO (control samples) was added to each well, followed by the addition of 25 μl of ^125I-eotaxin ([…]) (NEX314, New England Nuclear, Boston, Mass.) and […] of the CCR-3 L1.2 transfected cells in 25 μl binding buffer. The final reaction volume was 75 μl.
After incubating the reaction mixture for 1 h at room temperature, the reaction was terminated by filtering the reaction mixture through polyethylenimine treated Packard Unifilter GF/C filter plate (Packard, Chicago, Ill.). The filters were washed four times with ice cold wash buffer containing 10 mm HEPES and 0.5M sodium chloride (pH 7.2) and dried at 65° C. for approximately 10 min. 25 μl/well of Microscint-20™ scintillation fluid (Packard) was added and the radioactivity retained on the filters was determined by using the Packard TopCount™.
The IC50 value (concentration of test compound required to reduce ^125I-eotaxin binding to the CCR-3 L 1.2 transfected cells by 50%) for representative compounds of the invention was: […]

IC50 (CCR-3 receptor) [nM]	melting point [°C]	SMILES
	102 to 108	COc1cc(NC(=O)NCC[N+]2(C)CCC(Cc3ccc(Cl)c(Cl)c3)CC2)cc(OC)c1OC.[I-] (centres unmarked) [Cpd 19, 4-(3,4-dichlorobenzyl)-1-methyl-1-{2-[(3,4,5-trimethoxyphenyl)ureido]ethyl}piperidinium iodide]
2320		COc1cc(NC(=O)NC(C[N+]2(C)CCC(Cc3ccc(Cl)c(Cl)c3)CC2)C(C)C)cc(OC)c1OC (centres unmarked) [Cpd 14, 4-(3,4-dichlorobenzyl)-1-methyl-1-{3-methyl-2-[3-(3,4,5-trimethoxyphenyl)ureido]butyl}piperidinium iodide]

Second part, the compound before the results:

SMILES	IC50 (CCR-3 receptor) [nM]	melting point [°C]
CC[N+]1(C[C@H](NC(=O)Nc2cc(OC)c(OC)c(OC)c2)C(C)C)CCC(Cc2ccc(Cl)c(Cl)c2)CC1 (some centres unmarked) [Cpd 1, 4-(3,4-Dichlorobenzyl)-1-ethyl-1-{3-methyl-2-[3-(3,4,5-trimethoxyphenyl)-ureido]butyl]piperidinium iodide]	210	
COc1cc(NC(=O)NC(C[N+]2(C)CCC(Cc3ccc(Cl)c(Cl)c3)CC2)C(C)C)cc(OC)c1OC.[Cl-] (centres unmarked)		123.7 to 138
CCc1ccccc1NC(=O)N[C@@H](C[N+]1(CC)CCC(Cc2ccc(Cl)c(Cl)c2)CC1)C(C)(C)C (some centres unmarked) [Cpd 12]	198	
